Assay results published in US12590066B2, “Fused-heterocyclyl-carbonohydrazonoyl dicyanide compounds and use thereof” (KOREA INSTITUTE OF SCIENCE AND TECHNOLOGY, priority 2020, dated 2026).

Key:
[1] = target: T1, tau protein (Homo sapiens, UniProt P10636); assay: Tau-BiFC cell model, inhibition of Forskolin-induced tau protein aggregation; format: cell-based; conditions: Forskolin 30 μM, 48 hours; for Tau BiFC in cells Response (% @10 μM): 10 μM compound, Forskolin-only group = 100% tau protein-aggregated state; for IC50: tau-BiFC cells
T1 construct: BiFC fluorescent-protein fragments (type and halves not specified); expressed in transfected cells
T1 sequence (P10636 1-441 isoform P10636-8): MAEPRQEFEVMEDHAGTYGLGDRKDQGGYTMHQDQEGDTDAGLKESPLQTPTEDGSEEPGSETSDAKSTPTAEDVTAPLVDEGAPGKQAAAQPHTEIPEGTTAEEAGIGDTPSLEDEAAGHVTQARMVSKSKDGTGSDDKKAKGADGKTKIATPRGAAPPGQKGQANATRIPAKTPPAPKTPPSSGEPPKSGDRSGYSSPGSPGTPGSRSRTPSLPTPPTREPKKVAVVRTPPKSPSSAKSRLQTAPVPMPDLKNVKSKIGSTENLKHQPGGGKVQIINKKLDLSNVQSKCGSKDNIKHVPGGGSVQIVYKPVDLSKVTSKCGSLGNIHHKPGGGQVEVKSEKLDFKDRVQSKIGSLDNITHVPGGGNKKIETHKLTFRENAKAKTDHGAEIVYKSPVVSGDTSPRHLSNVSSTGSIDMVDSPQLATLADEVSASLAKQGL
Description: In order to select novel tau protein aggregation-inhibiting substances, tau-BiFC cell model, in which formation of tau oligomers in living cells is easily observed, was used. Tau-BiFC cells were aliquoted into a 384-well plate. On the next day, the cells were treated with each of the compounds prepared according to Examples 1 to 57 at concentrations of 1 μM, 3 μM, and 10 μM, together with Forskolin (at a treatment concentration of 30 μM), which is a compound inducing tau protein aggregation by activating tau phosphorylase PKA. After 48 hours, nuclei in the cells were stained using Hoechst (at a treatment concentration of 2 μg/mL), and BiFC fluorescence intensity was automatically measured using Operetta (PerkinElmer) to count stained nuclei in each well out of the entire well plate. The group treated only with Forskolin, which induces tau protein aggregation, was set to a reference point of a 100% tau protein-aggregated state, and the effects of the compounds were confirmed using the equation “BiFC fluorescence intensity due to compound synthesized according to embodiment of present invention/(fluorescence intensity of control group treated only with Forskolin inducing tau protein aggregation−fluorescence intensity of untreated control group)×100”. Furthermore, the degree of cytotoxicity induced by the newly synthesized compound was also measured based on the 100% cell viability of the group treated only with Forskolin as a reference, and the cytotoxicity value of each compound was calculated using the equation “(number of stained nuclei in group treated with compound/number of stained nuclei in group treated with Forskolin)×100”. Based on the treatment results, substances inhibiting intracellular tau protein aggregation were selected from a series of candidate groups showing a tau protein aggregation inhibition rate of 70% or more and cell viability of 100% at a compound treatment concentration of 10 μM or more.
In order to evaluate dose-dependent tau protein aggregation inhibition effects of the compounds selected according to Experimental Example 1 on tau protein aggregation, tau-BiFC cells were treated with the selected compounds at concentrations of 0.03 μM, […], 0.3 μM, 1 μM, 3 μM, 10 μM, and 30 μM, respectively, together with Forskolin (at a treatment concentration of 30 μM), which is a tau protein aggregation-inducing substance. After 48 hours, tau protein aggregation reaction and degrees of cytotoxicity were analyzed by observing images of the cells. IC50 and toxicity of the compounds were analyzed by way of nonlinear regression analysis of prism software (Graph Pad).

[2] = Liver microsome stability; format: in vitro ADME; conditions: 1 μM compound, 37° C., 30 minutes, NADPH; for Dog (%) amount of substrate remaining after the reaction: dog liver microsomes 0.25 mg/mL; for Human (%) amount of substrate remaining after the reaction: human liver microsomes 0.25 mg/mL; for Mouse (%) amount of substrate remaining after the reaction: mouse liver microsomes 0.25 mg/mL; for Rat (%) amount of substrate remaining after the reaction: rat liver microsomes 0.25 mg/mL
Description: The stability of liver microsomes due to the compounds prepared according to Examples 1 to 57 was confirmed. Specifically, four types of liver microsomes (human, dog, rat, and mouse, each 0.25 mg/mL), a 0.1 M phosphate buffer solution (pH 7.4), and each of the compounds at a concentration of 1 μM were mixed and pre-cultured at 37° C. for 5 minutes and further cultured at 37° C. for 30 minutes together with an NADPH generation system solution added thereto. Thereafter, the reaction was terminated by adding an acetonitrile solution containing an internal standard material (chloropropamide) and centrifuged for 5 minutes (14,000 rpm, 4° C.), and then a supernatant was injected into an LC-MS/MS system for analysis of substrate drugs to thereby evaluate metabolic stability due to 8 types of compounds.
The amount of the substrate remaining after the reaction was analyzed using the Shimadzu Nexera XR system and TSQ Vantage (Thermo). In an HPLC column, Kinetex XB-C18 (2.1 mm×100 mm, particle size of 2.6 μm; Phenomenex, USA) was used, and mobile phases were (A) distilled water containing 0.1% formic acid and (B) acetonitrile containing 0.1% formic acid. Analyst software (version 1.6.3) and Xcalibur (version 1.6.1) were used for data analysis.

[3] = target: T2, CYP2C19 (Homo sapiens, UniProt P33261); assay: Inhibitory effect on CYP coenzyme activity, human liver microsomes; format: in vitro ADME; conditions: 10 μM compound, human liver microsomes 0.25 mg/mL, substrate S-mephenytoin, 15 minutes
T2 construct: human liver microsomes (0.25 mg/mL); from tissue; host or cells: human liver microsomes
T2 sequence (P33261 whole entry): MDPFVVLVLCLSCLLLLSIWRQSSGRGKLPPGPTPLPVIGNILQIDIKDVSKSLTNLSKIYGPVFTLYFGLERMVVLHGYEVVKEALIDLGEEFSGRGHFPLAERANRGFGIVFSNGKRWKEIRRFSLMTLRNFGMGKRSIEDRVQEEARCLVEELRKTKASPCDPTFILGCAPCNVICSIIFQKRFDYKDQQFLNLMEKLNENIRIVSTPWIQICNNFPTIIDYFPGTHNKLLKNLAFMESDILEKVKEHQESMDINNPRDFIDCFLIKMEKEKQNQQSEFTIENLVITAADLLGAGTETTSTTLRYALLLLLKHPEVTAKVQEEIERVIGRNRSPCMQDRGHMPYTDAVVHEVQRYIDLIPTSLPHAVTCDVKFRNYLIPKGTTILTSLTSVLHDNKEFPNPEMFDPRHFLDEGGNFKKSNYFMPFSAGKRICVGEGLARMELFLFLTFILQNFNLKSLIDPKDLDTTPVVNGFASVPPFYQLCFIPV
Description: (§1) The inhibitory effects of the compounds prepared according to Examples 1 to 57 on CYP coenzyme activity were identified. Specifically, human liver microsomes (0.25 mg/mL), a 0.1 M phosphate buffer solution (pH 7.4), a substrate drug cocktail of five types of drug metabolism enzymes (50 μM phenacetin, 10 μM diclofenac, 100 μM S-mephenytoin, 5 μM dextromethorphan, and 2.5 μM midazolam), and the compound at a concentration of 0 μM or 10 μM were mixed and pre-cultured at 37° C. for 5 minutes, and then further cultured at 37° C. for 15 minutes together with an NADPH generation system solution added thereto. Thereafter, the reaction was terminated by adding an acetonitrile solution containing an internal standard material (terfenadine) and centrifuged for 5 minutes (14,000 rpm, 4° C.), and then a supernatant was injected into an LC-MS/MS system for simultaneous analysis of metabolites of the substrate drugs to thereby evaluate the inhibitory effects on drug metabolism.
(§2) Metabolites of each CYP coenzyme indicator drug generated through the reaction were analyzed using the Shimadzu Nexera XR system and TSQ Vantage (Thermo). In an HPLC column, Kinetex C18 (2.1 mm×100 mm, 2.6 μm, particle size; Phenomenex, USA) was used, and mobile phases were (A) distilled water containing 0.1% formic acid and (B) acetonitrile containing 0.1% formic acid, and a gradient program shown in Table 3 was applied thereto.
(§3) The generated metabolites were quantified using a multiple reaction monitoring (MRM) quantification mode, and Xcalibur (version 1.6.1) was used for data analysis. In order to express inhibitory effects of the novel compound prepared according to the examples of the present invention on CYP coenzyme activity, CYP coenzyme activities (%) with respect to the control group not treated with the compound are shown in Table 4 below.

[4] = target: T3, CYP2C9 (Homo sapiens, UniProt P11712); assay: as above; format: in vitro ADME; conditions: 10 μM compound, human liver microsomes 0.25 mg/mL, substrate diclofenac, 15 minutes
T3 construct: human liver microsomes (0.25 mg/mL); from tissue; host or cells: human liver microsomes
T3 sequence (P11712 whole entry): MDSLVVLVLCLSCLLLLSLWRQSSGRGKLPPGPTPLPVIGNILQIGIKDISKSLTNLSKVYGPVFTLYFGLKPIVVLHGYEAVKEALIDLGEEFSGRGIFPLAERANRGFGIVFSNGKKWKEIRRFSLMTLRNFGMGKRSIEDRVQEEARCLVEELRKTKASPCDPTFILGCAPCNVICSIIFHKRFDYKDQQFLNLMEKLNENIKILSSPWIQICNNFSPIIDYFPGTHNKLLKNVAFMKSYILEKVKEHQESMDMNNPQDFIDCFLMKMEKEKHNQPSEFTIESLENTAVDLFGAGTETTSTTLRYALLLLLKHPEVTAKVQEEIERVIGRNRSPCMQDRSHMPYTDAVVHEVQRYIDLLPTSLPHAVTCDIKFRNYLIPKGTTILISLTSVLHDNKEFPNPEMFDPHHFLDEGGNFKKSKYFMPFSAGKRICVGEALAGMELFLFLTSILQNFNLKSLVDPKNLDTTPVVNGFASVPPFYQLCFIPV
Description: as §1, §2, §3

[5] = target: T4, CYP3A4 (Homo sapiens, UniProt P08684); assay: as above; format: in vitro ADME; conditions: 10 μM compound, human liver microsomes 0.25 mg/mL, substrate midazolam, 15 minutes
T4 construct: human liver microsomes (0.25 mg/mL); from tissue; host or cells: human liver microsomes
T4 sequence (P08684 whole entry): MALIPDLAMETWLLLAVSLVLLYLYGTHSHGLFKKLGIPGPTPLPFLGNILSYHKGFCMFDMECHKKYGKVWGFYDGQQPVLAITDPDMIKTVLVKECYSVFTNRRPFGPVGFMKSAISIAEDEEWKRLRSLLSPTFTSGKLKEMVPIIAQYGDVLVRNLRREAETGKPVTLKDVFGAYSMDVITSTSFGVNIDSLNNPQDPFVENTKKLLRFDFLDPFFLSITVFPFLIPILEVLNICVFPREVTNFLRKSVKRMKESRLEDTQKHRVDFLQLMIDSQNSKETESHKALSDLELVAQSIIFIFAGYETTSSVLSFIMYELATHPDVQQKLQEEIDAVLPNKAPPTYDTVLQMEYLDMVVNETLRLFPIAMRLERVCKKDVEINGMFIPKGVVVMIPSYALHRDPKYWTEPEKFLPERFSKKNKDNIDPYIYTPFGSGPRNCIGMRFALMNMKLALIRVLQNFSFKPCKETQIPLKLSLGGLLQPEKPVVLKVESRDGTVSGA
Description: as §1, §2, §3

[6] = target: T5, CYP2D6 (Homo sapiens, UniProt P10635); assay: as above; format: in vitro ADME; conditions: 10 μM compound, human liver microsomes 0.25 mg/mL, substrate dextromethorphan, 15 minutes
T5 construct: human liver microsomes (0.25 mg/mL); from tissue; host or cells: human liver microsomes
T5 sequence (P10635 whole entry): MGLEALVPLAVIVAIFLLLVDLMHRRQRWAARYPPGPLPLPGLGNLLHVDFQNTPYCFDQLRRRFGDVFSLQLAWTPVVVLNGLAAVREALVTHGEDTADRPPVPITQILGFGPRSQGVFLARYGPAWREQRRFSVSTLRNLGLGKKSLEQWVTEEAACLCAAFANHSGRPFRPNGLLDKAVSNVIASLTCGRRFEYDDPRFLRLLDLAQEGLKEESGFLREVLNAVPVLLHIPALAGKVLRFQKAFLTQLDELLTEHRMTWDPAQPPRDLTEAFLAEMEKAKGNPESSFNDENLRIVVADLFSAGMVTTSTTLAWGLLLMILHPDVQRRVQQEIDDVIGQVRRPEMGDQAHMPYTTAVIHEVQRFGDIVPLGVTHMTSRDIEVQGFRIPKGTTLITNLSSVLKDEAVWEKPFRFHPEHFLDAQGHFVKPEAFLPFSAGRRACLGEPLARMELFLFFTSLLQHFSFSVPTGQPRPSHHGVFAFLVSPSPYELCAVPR
Description: as §1, §2, §3

| Compound | Tau BiFC in cells Response (% @10 μM) [1] [%] | Dog (%) amount of substrate remaining after the reaction [2] [%] | Human (%) amount of substrate remaining after the reaction [2] [%] | Mouse (%) amount of substrate remaining after the reaction [2] [%] | Rat (%) amount of substrate remaining after the reaction [2] [%] | CYP2C19 coenzyme activity (%) with respect to control group not treated [3] [%] | CYP2C9 coenzyme activity (%) with respect to control group not treated [4] [%] | CYP3A4 coenzyme activity (%) with respect to control group not treated [5] [%] | CYP2D6 coenzyme activity (%) with respect to control group not treated [6] [%] | IC50 [1] [nM] |
| --- | --- | --- | --- | --- | --- | --- | --- | --- | --- | --- |
| Cn1ccc2ccc(NN=C(C#N)C#N)cc2c1=O [Compound 2, (2-methyl-1-oxo-1,2-dihydroisoquinolin-7-yl)carbonohydrazonoyl dicyanide] | 0 | 2.5 | 27 | 63.4 | 88 | 79.2 | 77.9 | 89 | 94.3 |  |
| CC(C)n1ccc2ccc(NN=C(C#N)C#N)cc2c1=O [Compound 3, (2-isopropyl-1-oxo-1,2-dihydroisoquinolin-7-yl)carbonohydrazonoyl dicyanide] | 0 | 6.4 | 57.4 | 10.1 | 44.4 | 98.2 | 78.5 | >100 | >100 | 200 |
| N#CC(C#N)=NNc1cccc2c(=O)[nH]ccc12 [Compound 4, (1-oxo-1,2-dihydroisoquinolin-5-yl)carbonohydrazonoyl dicyanide] | 0 | >100 | >100 | >100 | 94.5 | 89.7 | 59.3 | 81.6 | 91.1 | 1800 |
| Cn1ccc2c(NN=C(C#N)C#N)cccc2c1=O [Compound 5, (2-methyl-1-oxo-1,2-dihydroisoquinolin-5-yl)carbonohydrazonoyl dicyanide] | 0 | >100 | 98.1 | 92.9 | >100 | >100 | 29.1 | 88.6 | 93.1 |  |
